Literature values, collected in patent US6150513A, “Polyketide synthase enzymes and recombinant DNA constructs therefor” (Kosan Biosciences, Inc., priority 1998, dated 2000).
Like-named read-outs stand apart in the source and are kept apart here. Values belong to the compound of their own block, whether it stands above or below them.

Assays:
sensory neurons = details: compared with FK-506, FK-520 and rapamycin; Steiner et al., 1997
[1] = tested on: nigral-striatal dopamine neurons; details: administration of FKBP ligand
splenocyte proliferation = details: Luengo et al., 1995

binding to FKBP compared with FK-506 (FKBP; in words): about as well as FK-506
SMILES: CC1(C)COC(=O)CCCCCCOc2cccc(c2)[C@@H](CCc2ccccc2)OC(=O)[C@@H]2CCCCN2C(=O)C1=O [compound 2]

reduction in binding to FKBP (FKBP; relative to rapamycin, Luengo et al., 1995): 10 fold
SMILES: COC(=O)N[C@H]1C[C@@H]2CC[C@@H](C)[C@@](O)(O2)C(=O)C(=O)N2CCCC[C@H]2C(=O)O[C@H]([C@H](C)C[C@@H]2CC[C@@H](O)[C@H](OC)C2)CC(=O)[C@H](C)/C=C(\C)[C@@H](O)[C@@H](OC)C(=O)[C@H](C)C[C@H](C)/C=C/C=C/C=C/1C [compound 1]
activity in the splenocyte proliferation assay (splenocyte proliferation): complete loss of activity

Continued, compound first:

SMILES: CC[C@@H]1/C=C(\C)C(O)[C@H](C)C[C@H](OC)[C@H]2O[C@@](O)(C(=O)C(=O)N3CCCC[C@H]3C(=O)O[C@H](/C(C)=C/[C@@H]3CC[C@@H](O)[C@H](OC)C3)[C@H](C)[C@@H](O)CC1=O)[C@H](C)C[C@@H]2OC (stereo partly drawn) [L-685,818]
IC50 (FKBP; see Dumont et al., 1992, read-out: ED50 for FKBP binding): 0.7 nM | promoting neurite outgrowth in sensory neurons (sensory neurons): about as effective as FK-506, FK-520, and rapamycin

SMILES: CCC(C)(C)C(=O)C(=O)N1CCC[C@H]1C(=O)OCCCc1cccnc1 [GPI-1046]
effect in primate MPTP model [1]: caused brain cells to regenerate and behavioral measures to improve

SMILES: COC1CC2CCC(C)C(O)(O2)C(=O)C(=O)N2CCCCC2C(=O)NC(CCc2ccccc2)C(=O)NCC(=O)N(C)CC(=O)OC1C (stereo not drawn) [compound 3]
binding to FKBP, poorer than FK-506 (FKBP; relative to FK-506): about 20 fold

SMILES: CO[C@H]1C[C@@H]2CC[C@@H](C)[C@@](O)(O2)C(=O)C(=O)N2CCCC[C@H]2C(=O)O[C@H]([C@H](C)C[C@@H]2CC[C@@H](O)[C@H](OC)C2)CC(=O)[C@H](C)/C=C(\C)[C@@H](O)[C@@H](OC)C(=O)[C@H](C)C[C@H](C)C2C=CC(/C=C/1C)n1c(=O)n(-c3ccccc3)c(=O)n12 [WAY-124,466]
IC50 (FKBP; see Ocain et al., 1993, target not given, context FKBP binding, read-out: IC50): 12.5 nM | promoting neurite outgrowth in sensory neurons (sensory neurons): about as effective as FK-506, FK-520, and rapamycin
